Patent US9023865B2, “Compounds that are ERK inhibitors” (Merck Sharp & Dohme Corp., priority 2011, dated 2015)

biological target: Active Human ERK2 (hERK2) (Homo sapiens (Human), UniProt P28482); test: Active Human ERK2 (hERK2) Activity Assay (IMAP-FP); type: biochemical; conditions: phosphorylated active hERK2, 30 μM ATP; average; read-out: ERK 2 Human average IC50
How it was run: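 Reaction contains 0.5 nM activated hERK2, 900 nM unlabeled plus 80 nM labeled peptide and 30 μM ATP, run 60 min. Quenched with IMAP binding beads in buffer with 24 mM NaCl; fluorescence polarization read after 60 min binding equilibration.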

Sequence of Active Human ERK2 (hERK2) (P28482 whole entry): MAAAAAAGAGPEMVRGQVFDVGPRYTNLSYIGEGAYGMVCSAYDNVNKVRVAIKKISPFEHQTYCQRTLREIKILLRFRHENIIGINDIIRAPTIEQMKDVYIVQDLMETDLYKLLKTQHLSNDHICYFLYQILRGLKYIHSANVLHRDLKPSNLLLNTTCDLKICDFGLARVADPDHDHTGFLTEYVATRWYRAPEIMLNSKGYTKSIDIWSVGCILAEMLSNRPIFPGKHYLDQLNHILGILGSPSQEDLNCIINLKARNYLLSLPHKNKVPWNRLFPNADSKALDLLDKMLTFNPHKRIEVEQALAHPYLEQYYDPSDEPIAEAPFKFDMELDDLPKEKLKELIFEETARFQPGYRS

Row | IC50 | SMILES
1 | 251 nM | C[C@@H](NC(=O)Nc1cc2[nH]nc(C(N)C(F)(F)F)c2cn1)c1ccccc1 (stereo partly drawn) [Example 563, 1-(3-(1-amino-2,2,2-trifluoroethyl)-1H-pyrazolo[4,3-c]pyridin-6-yl)-3-((R)-1-phenylethyl)urea]
2 | 50 nM | CNC(c1n[nH]c2cc(NC(=O)N[C@H](C)c3ccccc3)ncc12)C(F)(F)F (stereo partly drawn) [Example 564, 1-((R)-1-phenylethyl)-3-(3-(2,2,2-trifluoro-1-(methylamino)ethyl)-1H-pyrazolo[4,3-c]pyridin-6-yl)urea]
3 | 0.313 nM | Cc1cc(-c2n[nH]c3cc(NC(=O)NC(CS(C)(=O)=O)c4ccccc4)ncc23)ccn1 (centres unmarked) [Example 566]
4 | 0.441 nM | Cc1cc(-c2n[nH]c3cc(NC(=O)N[C@H]4CN(C)[C@@H](C(F)F)[C@@H]4c4ccccc4)ncc23)ccn1 [Example 567]
5 | 0.479 nM | Cc1cc(-c2n[nH]c3cc(NC(=O)N[C@@H]4[C@@H](c5ccccc5)CN(C)[C@@H]4C)ncc23)ccn1 [Example 568]
6 | 1.48 nM | Cc1cc(-c2n[nH]c3cc(NC(=O)N[C@H]4CN(C)[C@H](C(F)F)[C@@H]4c4ccccc4)ncc23)ccn1 [Example 569]
7 | 0.257 nM | CSC[C@@H](NC(=O)Nc1cc2[nH]nc(-c3ccnc(C)c3)c2cn1)c1ccccc1 [Example 570]
8 | 3.07 nM | Cc1cc(-c2n[nH]c3c(Cl)c(NC(=O)N[C@H](C)c4ccccc4)ncc23)ccn1 [Example 571, (R)-1-(7-chloro-3-(2-methylpyridin-4-yl)-1H-pyrazolo[4,3-c]pyridin-6-yl)-3-(1-phenylethyl)urea]
9 | 1.62 nM | CCCNC(=O)Nc1cc2[nH]nc(-c3ccnc(C)c3)c2cn1 [Example 572]
10 | 7.22 nM | Cc1cc(-c2n[nH]c3cc(NC(=O)NCCO)ncc23)ccn1 [Example 573]
11 | 1.41 nM | Cc1cc(-c2n[nH]c3cc(NC(=O)NCC4CCC4)ncc23)ccn1 [Example 574]
12 | 1.2 nM | Cc1cc(-c2n[nH]c3cc(NC(=O)N[C@H](C)C4CCCCC4)ncc23)ccn1 [Example 575]
13 | 2450 nM | Cc1cc(-c2n[nH]c3cc(NC(=O)N(C)C4CCCCC4)ncc23)ccn1 [Example 576]
14 | 4 nM | Cc1cc(-c2n[nH]c3cc(NC(=O)NC4CCOC4)ncc23)ccn1 (centres unmarked) [Example 577]
15 | 0.561 nM | Cc1cc(-c2n[nH]c3cc(NC(=O)NCC4CCCCC4)ncc23)ccn1 [Example 578]
16 | 10.6 nM | Cc1cc(-c2n[nH]c3cc(NC(=O)NC4CCNC4)ncc23)ccn1 (centres unmarked) [Example 579]
17 | 0.193 nM | Cc1cc(-c2n[nH]c3cc(NC(=O)N[C@@H]4COC[C@H]4c4ccccc4)ncc23)ccn1 [Example 580]
18 | 0.233 nM | Cc1cc(-c2n[nH]c3cc(NC(=O)N[C@@H]4CN(C)C[C@H]4c4cccc(Cl)c4)ncc23)ccn1 [Example 581]
19 | 0.234 nM | Cc1cc(-c2n[nH]c3cc(NC(=O)N[C@@H]4CN(C)C[C@H]4c4ccccc4)ncc23)ccn1 [Example 582]
20 | 0.917 nM | Cc1cc(-c2n[nH]c3cc(NC(=O)N[C@@H]4C[C@H]4c4ccccc4)ncc23)ccn1 [Example 583]
21 | 0.679 nM | Cc1cc(-c2n[nH]c3cc(NC(=O)NCC(C)c4ccccc4)ncc23)ccn1 (centres unmarked) [Example 584]
22 | 1.26 nM | COC(C)CNC(=O)Nc1cc2[nH]nc(-c3ccnc(C)c3)c2cn1 (centres unmarked) [Example 585]
23 | 1.3 nM | Cc1cc(-c2n[nH]c3cc(NC(=O)NCC4CNC4)ncc23)ccn1 [Example 586]
24 | 12.6 nM | COC[C@H](NC(=O)Nc1cc2[nH]nc(-c3ccnc(C)c3)c2cn1)c1ccccc1 [Example 587]
25 | 30.9 nM | Cc1cc(-c2n[nH]c3cc(NC(=O)NCC4COC4)ncc23)ccn1 [Example 588]
26 | 0.823 nM | C[C@@H](NC(=O)Nc1cc2[nH]nc(-c3cnn(C)c3)c2cn1)C1CCCCC1 [Example 589]
27 | 2.06 nM | Cn1cc(-c2n[nH]c3cc(NC(=O)NCC4CCC4)ncc23)cn1 [Example 590]
28 | 1.54 nM | O=C(NCC1CCC1)Nc1cc2[nH]nc(-c3ccnc(F)c3)c2cn1 [Example 591]
29 | 3.34 nM | C[C@@H](NC(=O)Nc1cc2[nH]nc(-c3ccnc(F)c3)c2cn1)C1CCCCC1 [Example 593]
30 | 3.78 nM | C[C@@H](NC(=O)Nc1cc2[nH]nc(-c3ccc(F)cc3)c2cn1)C1CCCCC1 [Example 594]

Second part, the compound before the results:

Row | SMILES | IC50
31 | Cc1cc(-c2n[nH]c3cc(NC(=O)NCc4ccc(F)cn4)ncc23)ccn1 [Example 516] | 2.35 nM
32 | Cc1cc(-c2n[nH]c3cc(NC(=O)NCc4ncc(F)cc4Cl)ncc23)ccn1 [Example 517] | 0.761 nM
33 | CNC(=O)c1cc(F)ccc1CNC(=O)Nc1cc2[nH]nc(-c3ccnc(C)c3)c2cn1 [Example 518] | 5.18 nM
34 | Cc1cc(-c2n[nH]c3cc(NC(=O)NCc4c(F)cc(F)cc4F)ncc23)ccn1 [Example 519] | 0.962 nM
35 | COc1cc(F)ccc1CNC(=O)Nc1cc2[nH]nc(-c3ccnc(C)c3)c2cn1 [Example 520] | 0.44 nM
36 | Cc1cc(-c2n[nH]c3cc(NC(=O)NCc4ccc(Cl)cc4F)ncc23)ccn1 [Example 521] | 3.31 nM
37 | Cc1cc(-c2n[nH]c3cc(NC(=O)NC(CN)c4ccc(F)cc4)ncc23)ccn1 (centres unmarked) [Example 522] | 0.357 nM
38 | Cc1cc(-c2n[nH]c3cc(NC(=O)NCc4ccccc4OC(F)(F)F)ncc23)ccn1 [Example 523] | 0.605 nM
39 | Cc1cc(-c2n[nH]c3cc(NC(=O)NC(C)c4ccccc4OC(F)(F)F)ncc23)ccn1 (centres unmarked) [Example 524] | 2.39 nM
40 | Cc1cc(-c2n[nH]c3cc(NC(=O)NCc4ccccc4OCC(F)F)ncc23)ccn1 [Example 525] | 0.358 nM
41 | CCOc1ncccc1CNC(=O)Nc1cc2[nH]nc(-c3ccnc(C)c3)c2cn1 [Example 526] | 0.546 nM
42 | Cc1cc(-c2n[nH]c3cc(NC(=O)N[C@H](C)c4ccc(C(F)(F)F)nc4)ncc23)ccn1 [Example 527] | 567 nM
43 | Cc1cc(-c2n[nH]c3cc(NC(=O)NC(C)C4CCOC4)ncc23)ccn1 (centres unmarked) [Example 528] | 12.7 nM
44 | COc1ccccc1CNC(=O)Nc1cc2[nH]nc(-c3ccnc(C)c3)c2cn1 [Example 529] | 0.293 nM
45 | Cc1cc(-c2n[nH]c3cc(NC(=O)NC4c5ccccc5OC(C)(C)C4O)ncc23)ccn1 (centres unmarked) [Example 530] | 53.5 nM
46 | Cc1cc(-c2n[nH]c3cc(NC(=O)N[C@@H](c4ccccc4)C4(O)CCCC4)ncc23)ccn1 [Example 531] | 0.545 nM
47 | Cc1cc(-c2n[nH]c3cc(NC(=O)NC4CCOc5ccccc54)ncc23)ccn1 (centres unmarked) [Example 532] | 3.52 nM
48 | Cc1cc(-c2n[nH]c3c(F)c(NC(=O)N[C@H](C)c4ccc(Cl)cc4)ncc23)ccn1 [Example 534] | 0.509 nM
49 | Cc1cc(-c2n[nH]c3c(F)c(NC(=O)NCc4ccccc4)ncc23)ccn1 [Example 536] | 1.14 nM
50 | C[C@@H](NC(=O)Nc1cc2[nH]nc(C#N)c2cn1)c1ccccc1 [Example 537, (R)-1-(3-cyano-1H-pyrazolo[4,3-c]pyridin-6-yl)-3-(1-phenylethyl)urea] | 66.6 nM
51 | COC[C@@H](NC(=O)Nc1cc2[nH]nc(-c3ccnc(C)c3)c2cn1)c1ccccc1 [Example 538] | 0.298 nM
52 | C[C@@H](NC(=O)Nc1ncc2c(-c3ccnc(F)c3)n[nH]c2c1F)c1ccccc1 [Example 539] | 0.728 nM

Row | SMILES | IC50
53 | C[C@@H](NC(=O)Nc1ncc2c(C#N)n[nH]c2c1F)c1ccccc1 [Example 540] | 946 nM
54 | COC[C@@H](NC(=O)Nc1ncc2c(-c3ccnc(C)c3)n[nH]c2c1F)c1ccccc1 [Example 542] | 0.269 nM
55 | COC[C@@H](NC(=O)Nc1ncc2c(-c3ccnc(F)c3)n[nH]c2c1F)c1ccccc1 [Example 543] | 0.272 nM
56 | Cc1cc(-c2n[nH]c3c(F)c(NC(=O)N[C@H](CO)c4ccccc4)ncc23)ccn1 [Example 544] | 1.28 nM
57 | COC[C@@H](NC(=O)Nc1cc2[nH]nc(-c3ccncc3)c2cn1)c1ccccc1 [Example 545] | 0.236 nM
58 | O=C(Nc1cc2[nH]nc(-c3ccncc3)c2cn1)N[C@H](CO)c1ccccc1 [Example 546] | 0.358 nM
59 | COC[C@@H](NC(=O)Nc1ncc2c(-c3ccncc3)n[nH]c2c1F)c1ccccc1 [Example 547] | 0.184 nM
60 | O=C(Nc1ncc2c(-c3ccncc3)n[nH]c2c1F)N[C@H](CO)c1ccccc1 [Example 548] | 0.315 nM
61 | Cc1cc(-c2n[nH]c3cc(NC(=O)NC[C@H]4COCCO4)ncc23)ccn1 [Example 549] | 2.62 nM
62 | Cc1cc(-c2n[nH]c3cc(NC(=O)NC[C@@H]4COCCO4)ncc23)ccn1 [Example 550] | 2.43 nM
63 | Cc1cc(-c2n[nH]c3cc(NC(=O)N[C@H](c4ccccc4)[C@H]4CCCO4)ncc23)ccn1 [Example 551] | 41.2 nM
64 | Cc1cc(-c2n[nH]c3cc(NC(=O)N[C@H](c4ccccc4)[C@@H]4CCCO4)ncc23)ccn1 [Example 552] | 23.8 nM
65 | Cc1cc(-c2n[nH]c3cc(NC(=O)N[C@@H](c4ccccc4)[C@H]4CCCO4)ncc23)ccn1 [Example 553] | 0.26 nM
66 | Cc1cc(-c2n[nH]c3cc(NC(=O)N[C@@H](c4ccccc4)[C@@H]4CCCO4)ncc23)ccn1 [Example 554] | 0.262 nM
67 | Cc1cc(-c2n[nH]c3cc(NC(=O)N[C@H]4[C@H](c5ccccc5C)CN(C)[C@H]4C)ncc23)ccn1 [Example 555] | 0.426 nM
68 | Cc1cc(-c2n[nH]c3cc(NC(=O)NC(C)c4nnco4)ncc23)ccn1 (centres unmarked) [Example 556] | 232 nM
69 | CN1C[C@@H](NC(=O)Nc2cc3[nH]nc(-c4ccc(F)cc4)c3cn2)[C@H](c2ccccc2)C12COC2 [Example 557] | 1.86 nM
70 | C[C@@H](NC(=O)Nc1cc2[nH]nc(CC#N)c2cn1)c1ccccc1 [Example 559, (R)-1-(3-(cyanomethyl)-1H-pyrazolo[4,3-c]pyridin-6-yl)-3-(1-phenylethyl)urea] | 14.5 nM
71 | C[C@@H](NC(=O)Nc1cc2[nH]nc(CS(C)(=O)=O)c2cn1)c1ccccc1 [Example 560] | 81.7 nM
72 | C[C@@H](NC(=O)Nc1cc2[nH]nc(CNCC(F)(F)F)c2cn1)c1ccccc1 [Example 561] | 15 nM
73 | C[C@@H](NC(=O)Nc1cc2[nH]nc(CNCC(F)F)c2cn1)c1ccccc1 [Example 562] | 25.3 nM
74 | O=C(NCC1CCC1)Nc1cc2[nH]nc(-c3ccc(F)cc3)c2cn1 [Example 592] | 2.88 nM
